According to PubChem BioAssay (NCI):
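Growth conditions: 96-well plates. Treatment: test compound, 48 hours, 5 concentrations. Analysis: linear interpolation between bracketing concentrations; unreached endpoints set to highest concentration. GI50 marks 50% less growth. TGI: concentration producing complete growth inhibition.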 *1 amine or outer side, *2 acyl side, *3 side chain or, on linkers, in order; H or OH if unused. Where a SMILES comes first, the peptide text is derived from it. [ ]: non-standard residue; d: D form. The star is where a group is joined. X31 = CC(=O)N(C)SCC(N[*:1])C(=O)[*:2]; Fmoc = O=C(OCC1c2ccccc2-c2ccccc21)*; For = O=C*

Tests used:
Experiment in all cases: DTP human tumour cell line panel, 48 h
[1] = tested on: SK-MEL-5 melanoma
[2] = tested on: DU-145 prostate
[3] = tested on: HOP-62 NSCLC
[4] = tested on: T-47D breast
[5] = tested on: BT-549 breast
[6] = tested on: CCRF-CEM leukemia
[7] = tested on: HOP-92 NSCLC
[8] = tested on: NCI-H460 lung
[9] = tested on: SK-MEL-2 melanoma
[10] = tested on: HCT-15 colon

| Compound | TGI [1] [µM] | TGI [2] [µM] | TGI [3] [µM] | TGI [4] [µM] | TGI [5] [µM] | TGI [6] [µM] | TGI [7] [µM] | TGI [8] [µM] | TGI [9] [µM] | TGI [10] [µM] | GI50 [1] [µM] | GI50 [2] [µM] | GI50 [3] [µM] | GI50 [4] [µM] | GI50 [5] [µM] | GI50 [6] [µM] | GI50 [7] [µM] | GI50 [8] [µM] | GI50 [9] [µM] | GI50 [10] [µM] |
| --- | --- | --- | --- | --- | --- | --- | --- | --- | --- | --- | --- | --- | --- | --- | --- | --- | --- | --- | --- | --- |
| CC(=O)N(C)SCC(NC(=O)C(Cc1ccccc1)NC(=O)OCC1c2ccccc2-c2ccccc21)C(=O)NC(Cc1ccccc1)C(=O)NC(Cc1cn(C=O)c2ccccc12)C(=O)NC(CCCCNC(=O)OCC1c2ccccc2-c2ccccc21)C(=O)NC(C(=O)NC(CSN(C)C(C)=O)C(=O)NC(C(N)=O)C(C)O)C(C)O (stereo not given) (Fmoc-F[X31]FW(For)K(Fmoc)T[X31]T-NH2; configuration not given here) | > 100 | > 100 | > 100 | > 100 | > 100 | > 100 | 62.4 | > 100 | > 100 | > 100 | – | – | – | – | – | – | – | – | – | – |
| CNc1ncnc2c1cnn2Cc1cn(CCCCO)nn1 | > 100 | > 100 | > 100 | > 100 | > 100 | > 100 | > 100 | > 100 | > 100 | > 100 | – | – | – | – | – | – | – | – | – | – |
| CC(=O)/C(=C(/Br)I)c1ccccc1 | 30.8 | 31.4 | 29.7 | 13.3 | 6.33 | 11.3 | 23.8 | 48.3 | 15.7 | 17.7 | – | – | – | – | – | – | – | – | – | – |
| Cc1ccc(S(=O)(=O)Nc2cc(Sc3ccccc3)c(O)c3ccccc23)cc1 | 13.1 | 13.6 | 25.5 | 5.99 | 24.2 | 16.6 | 4.57 | 34.5 | 16 | 25.1 | 3.57 | 3.83 | 7.99 | 2.25 | 11.9 | 2.4 | 2.02 | 17.6 | 3.73 | 6.81 |
| Nc1nc(NCCOCP(=O)(O)O)c(N)c(=O)[nH]1 | > 100 | > 100 | > 100 | > 100 | > 100 | > 100 | > 100 | > 100 | > 100 | > 100 | – | – | – | – | – | – | – | – | – | – |
| Cc1ncc(CO)c(C=NCCCCCCN=Cc2c(CO)cnc(C)c2O)c1O | > 100 | > 100 | > 100 | > 100 | > 100 | > 100 | > 100 | > 100 | > 100 | > 100 | – | – | – | – | – | – | – | – | – | – |
| Cc1cn2c(/C=C3/C(=O)Nc4ccccc43)c(C)nc2s1 | 14.6 | > 100 | > 100 | 38.5 | > 100 | 8.91 | > 100 | 16.1 | 5.57 | > 100 | – | – | – | – | – | – | – | – | – | – |
| Oc1ccccc1-n1nc2ccc3nonc3c2n1 | > 100 | > 100 | > 100 | > 100 | > 100 | > 100 | > 100 | > 100 | > 100 | > 100 | – | – | – | – | – | – | – | – | – | – |
| O=C(O)CCc1nc2cc3ccccc3cc2[nH]c1=O | > 100 | > 100 | > 100 | > 100 | > 100 | > 100 | > 100 | > 100 | > 100 | > 100 | – | – | – | – | – | – | – | – | – | – |
| CCCCCCC(=O)OC[n+]1cccc(-c2c(COC(=O)NC(C)C)c(COC(=O)NC(C)C)c3n2CCC3)c1 | > 88.9 | 98.4 | > 100 | > 100 | > 96.4 | > 66.5 | 66.4 | > 100 | 60.4 | > 100 | – | – | – | – | – | – | – | – | – | – |
| CC(C)OP(=O)(OC(C)C)C(Nc1cccc(C(F)(F)F)c1)c1ccccc1 (stereo not given) | 76.5 | > 100 | > 100 | > 100 | > 100 | > 100 | > 100 | > 100 | > 100 | > 100 | – | – | – | – | – | – | – | – | – | – |
| O=[N+]([O-])c1ccc2[nH]c(O)c(N=NC(=S)Nc3ccccc3)c2c1 | 13.5 | 67.3 | 21.8 | 38.9 | 19.9 | 20 | 21.7 | 14.5 | 31.3 | 17 | – | – | – | – | – | – | – | – | – | – |
| CCOC(=O)Oc1ccc2c(c1)c(=O)c1c(NCCCN(CC)CC)ccc3nnn2c31 | 23.2 | 17.4 | 12.5 | 31.1 | 32 | 6.88 | 24.6 | 15.2 | 30 | 21 | – | – | – | – | – | – | – | – | – | – |
| COc1cccc(C(=O)N[C@@H]2[C@H](O)[C@@H](CO)O[C@H]2n2cnc3c(N)ncnc32)c1 | > 100 | > 100 | > 100 | > 100 | > 100 | > 100 | > 100 | > 100 | > 100 | > 100 | – | – | – | – | – | – | – | – | – | – |
| COc1ccccc1N1C(=O)CC(=O)N(C(=O)CCCCCCCCC(=O)N2C(=O)CC(=O)N(c3ccccc3OC)C2=S)C1=S | > 100 | > 100 | > 100 | > 100 | > 100 | > 100 | > 100 | > 100 | > 100 | > 100 | – | – | – | – | – | – | – | – | – | – |
